# ChEMBL document CHEMBL3507680, “University of Dundee, Gates Library screen for HepG2 cell viability”
# Test: Human HepG2 cell viability assay in 384 well format
# Format: toxicity, cell-based
# Set-up: dose 125 nL, time 70.5 hour; cytotoxicity at 70.5 h: concentration not given beside the values
# Conditions: HepG2 cells, read-out: Inhibition
row,SMILES,cytotoxicity at 70.5 h [%]
1,COCCN1CCCCC12CC(=O)N(c1cccc(C#N)c1)C2 (configuration not stated),-4.04
2,Cn1cnc2c(N3CCCC3)nc(C3CCN(CC4CC4)CC3)cc21,-0.352
3,CCO[C@H]1CN(CC2CC2)[C@@H]2CCCO[C@H]12,1.44
4,Cc1cccc(N2CCC(N3CCC4(CCCNC4=O)C3)CC2)c1C (configuration not stated),10.3
5,CCN1CC2(CCCCN2C(=O)c2ccsc2)CC1=O (configuration not stated),2.62
6,Cc1cc2ccccc2n1CCC(=O)NCc1ncc[nH]1,-1.07
7,NC(=O)CCN(C(=O)c1cccc2c1OCO2)c1ccccc1,-14
8,Cc1c[nH]nc1C1CCN(C(=O)C2CCCC2)C1 (configuration not stated),-5.07
9,CCOc1cc(CNCC2CN(C3CC3)CCO2)ccc1OC (configuration not stated),-8.19
10,CCn1nc2c(cc1=O)CN(Cc1nc(-c3cccs3)no1)CC2,-12.8
11,Cn1cc(C(=O)N[C@H]2CN(S(C)(=O)=O)[C@@H]3CCCO[C@H]23)cn1,-9.45
12,CSC(C)C(=O)N1CCCN(Cc2nccn2C)CC1 (configuration not stated),-1.04
13,CCC1=NC(SCC(=O)c2ccccc2)c2cc(CC)sc2N1 (configuration not stated),13.5
14,COc1ncccc1-c1ncccc1NC(=O)C(C)C,-6.31
15,O=C(CN1CCN(C(=O)c2ccccc2)CC1)Nc1ncc(Br)cc1Br,-1.02
16,Cc1cc(-c2nn(C)c(Cl)c2CN2CCCCC(N)C2)no1 (configuration not stated),-1.48
17,Cc1nc(CN2CCCC2c2c(C)nn(C)c2Cl)oc1C (configuration not stated),19.6
18,O=C(Nc1ccc(-n2cccn2)cc1)N1CCOCC(O)C1 (configuration not stated),-20.9
19,Cc1noc(C)c1CN(Cc1cccs1)C1CCS(=O)(=O)C1 (configuration not stated),15.7
20,O=C(Cc1ccc2c(c1)CCCC2)Nc1cccnc1N1CCSCC1,-7.86
21,COc1ccc(F)c(-c2cc(NCCO)nc(N)n2)c1,-3.97

row,SMILES,cytotoxicity at 70.5 h [%]
1,CCN(CC)C(=O)[C@@H]1C[C@@H](n2cc(-c3ccccn3)nn2)CN1,-3.65
2,CC(C)c1nn(C)c(N(C)C)c1CNCC(O)c1ccccc1F (configuration not stated),17.9
3,NC(=O)c1cc2c(nc1CCOCc1ccccc1)CCC2,-8.58
4,CCC1CCCCN1CCNC(=O)N1CCN(Cc2ccon2)CC1 (configuration not stated),-2.53
5,Cc1cc(N2CCN(C3CCOCC3)CC(C(=O)N(C)C)C2)ncn1 (configuration not stated),-6.48
6,N#CCCN(Cc1ccco1)C(=O)CN1CCCC1c1cccs1 (configuration not stated),1.44
7,CC(C)c1nnc2n1CC(CNCc1nnc(C(C)(C)C)o1)CC2 (configuration not stated),9.48
8,CC1(C(=O)NCCCOc2ccccc2F)CC(=O)N2C=CC=CC2=N1 (configuration not stated),0.00385
9,COc1ccc(OC)c(CNC2CCCN(c3cccnn3)C2)c1 (configuration not stated),-3.12
10,Cc1cc(C)nc(N2CCCC(c3cccc(-n4ccnc4)n3)C2)n1 (configuration not stated),-5.86
11,O=C(N[C@H]1CC[C@H](O)CC1)c1ccc2nc(-c3ccc(F)cc3)cn2c1,-9.74
12,CCc1nnc2n1CCN(C(=O)c1cnc3c(cnn3C(C)C)c1)C2,-8.43
13,c1cnc(Nc2cncc(C3CCCN(c4cnccn4)C3)n2)nc1 (configuration not stated),-5.35
14,Cc1cccc(Nc2cc(C)nc(C3CCCCN3CC(N)=O)n2)n1 (configuration not stated),-4.2
15,CCC1CN(CC(=O)NCC(C)C)CCO1 (configuration not stated),-10.6
16,O=C(c1cnc2ccc(F)cc2c1NCc1ccccn1)N1CCCC1,-17.9
17,O=C(c1ccsc1)N1CCc2ncc(Cn3cncn3)n2CC1,-14.2
18,CCNC(=O)N1CCCCC1CCO (configuration not stated),12.6
19,O=C(c1cccnc1N1CCOCC1)N1CCCC(n2cncn2)C1 (configuration not stated),18.2
20,CN(C)C(=O)Cc1ccc(NC(=O)NC2CC2)cc1,-3.59
21,CN(C)C(=O)CN1C(=O)C[C@@H]2[C@@H]1CCN2Cc1cccc(C#N)c1,6.8

row,SMILES,cytotoxicity at 70.5 h [%]
1,O=C(NCCn1ccnc1)N1CCN(Cc2cccs2)CC1,-17.2
2,O=C(Nc1ccc2c(ccn2CCN2CCOCC2)c1)c1ccccn1,-3.62
3,O=C(Nc1ccccn1)C1(n2cnnn2)CCCCC1,-21.1
4,CCc1nc(N2CCCC(CCOC)(C(=O)O)C2)ncc1C (configuration not stated),-4.01
5,O=C(O)c1cc(/C=C/c2cccc3ccccc23)ncn1,-7.2
6,CC(C)(O)CCc1cccc(C(=O)NCC2COCCO2)c1 (configuration not stated),-1.78
7,CCCN1C[C@H]2CC[C@@H]1CN(Cc1cccc(O)c1)C2,-9.57
8,CC(NC(=O)Nc1cccnc1N1CCOCC1)c1ccncc1 (configuration not stated),6.43
9,CN(Cc1ccc(F)cc1)[C@@H]1CN(C(=O)c2cccs2)C[C@H]1O,-17.9
10,CC(c1ccco1)N(C(=O)c1cccc(C#N)c1)C1CC1 (configuration not stated),-5.03
11,CC(C)c1nnc(NC(=O)NC2CCN(Cc3ccccc3)C2)s1 (configuration not stated),-2.21
12,CN(CCO)Cc1nnc(C2CCN(C(=O)c3ccccc3)CC2)n1C,0.129
13,Cn1c(CC(=O)O)c(Sc2ccccc2)c2ccccc21,-0.644
14,Cc1ccsc1C(=O)N1CCCn2nnc(Cn3cccn3)c2C1,9.85
15,CCc1cc(C(=O)N2CCC(Nc3ccc(C)nn3)CC2)sc1C,-2.56
16,COc1ccc(CNC(=O)NCCc2nc(C)c(C)s2)cn1,-3.08
17,O=C(Cc1ccc(-n2cnnn2)cc1)Nc1cnn(CC(F)F)c1,-15.7
18,CCCc1nnc(N2CCCC(c3nnc(Cn4ccnc4)n3C)C2)s1 (configuration not stated),-2.6
19,COCCOc1ncccc1C(=O)N1CCCC1Cn1cc(C)cn1 (configuration not stated),-12
20,COC(CNC(=O)c1ccc[nH]1)c1cccc(Cl)c1 (configuration not stated),10.5
21,COC(=O)c1cccc(CNC(=O)NCCC(F)(F)F)c1,1.57

row,SMILES,cytotoxicity at 70.5 h [%]
1,NC(=O)C1CCCN1Cc1ccccc1NC(=O)Cc1cccs1 (configuration not stated),13
2,O=C(Nc1ccccc1)N1C[C@H]2C[C@H](C(=O)N3CCCC3)[C@@H](C1)O2,15.5
3,CN1C(=O)CC(c2cnn(C)c2)C12CCN(C(=O)c1ccncc1)CC2 (configuration not stated),-6.57
4,Cc1nc(CN2CCCN(Cc3nc4ccccc4o3)CC2)no1,-8.61
5,Cc1ccc(C(=O)N2CC[C@H](N3CCOCC3)[C@H](CCCO)C2)cc1O,-8.22
6,c1coc(CN2CCO[C@@]3(CCC[C@@H]3COCc3nccs3)C2)c1,-13.3
7,Cc1cc(C)c(CN2CCCC23Cc2ccccc2CNC3=O)c(C)c1 (configuration not stated),-9.48
8,CCOC1CCCN(C(=O)Nc2cnn(CC(F)F)c2)C1 (configuration not stated),-9.21
9,CCc1n[nH]c(C2CN(Cc3nccn3CC)CCO2)n1 (configuration not stated),22.2
10,CN(C)CCOCc1nnc2n1CCN(Cc1ccco1)C2,-1.46
11,CCOc1ccc(-c2c(-c3ccccc3)ncn2C2CCNC2)cn1 (configuration not stated),-12.8
12,Cc1[nH]nc(CCC(=O)N2CCOC(CCc3ccccc3)C2)c1C (configuration not stated),-0.521
13,Cc1ccc(C(=O)N2C[C@@H]3CCN(c4cccnc4)C[C@@H]3C2)cn1,-12.4
14,CCc1nc(C2CCCN2C(=O)CCc2cscn2)no1 (configuration not stated),-4.03
15,O=C(Nc1ncn(Cc2cccc(Br)c2)n1)C1CCC1,-13.9
16,Fc1ccccc1CN1CCC(c2noc(-c3ccccn3)n2)CC1,1.88
17,CC(C)CCN(C(=O)c1ccc(-n2ncc(C#N)c2N)cc1)C1CC1,-6.84
18,Cc1ccc(C)c2c(C)c(C(=O)NCCCn3cnnc3)[nH]c12,-6.86
19,FC(F)(F)c1ccccc1CCC1CCCN(Cc2cscn2)C1 (configuration not stated),44.3
